Test results taken from PubChem BioAssay (NCI).
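Five concentrations, 48 hours, 96-well plates. TGI: concentration producing complete growth inhibition.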

What was measured:
Assay in all cases: NCI anticancer screen, dose series, 48 h
A498 renal = system: A498 renal
A549 NSCLC = system: A549 NSCLC
ACHN renal = system: ACHN renal
CAKI-1 renal = system: CAKI-1 renal
CCRF-CEM leukemia = system: CCRF-CEM leukemia
COLO 205 colon = system: COLO 205 colon
DLD-1 colon = system: DLD-1 colon
DMS 114 small cell lung = system: DMS 114 small cell lung
DMS 273 small cell lung = system: DMS 273 small cell lung
EKVX NSCLC = system: EKVX NSCLC
HCC-2998 colon = system: HCC-2998 colon
HCT-116 colon = system: HCT-116 colon
HCT-15 colon = system: HCT-15 colon
HL-60(TB) leukemia = system: HL-60(TB) leukemia
HOP-18 NSCLC = system: HOP-18 NSCLC
HOP-92 NSCLC = system: HOP-92 NSCLC
HT29 colon = system: HT29 colon
IGROV1 ovarian = system: IGROV1 ovarian
K-562 leukemia = system: K-562 leukemia
KM12 colon = system: KM12 colon
KM20L2 colon = system: KM20L2 colon
LOX IMVI melanoma = system: LOX IMVI melanoma
LXFL 529 NSCLC = system: LXFL 529 NSCLC
M14 melanoma = system: M14 melanoma
MALME-3M melanoma = system: MALME-3M melanoma
MOLT-4 leukemia = system: MOLT-4 leukemia
NCI-H23 lung = system: NCI-H23 lung
NCI-H460 lung = system: NCI-H460 lung
OVCAR-4 ovarian = system: OVCAR-4 ovarian
OVCAR-5 ovarian = system: OVCAR-5 ovarian
OVCAR-8 ovarian = system: OVCAR-8 ovarian
RPMI-8226 leukemia = system: RPMI-8226 leukemia
RXF 393 renal = system: RXF 393 renal
SF-268 CNS = system: SF-268 CNS
SF-295 CNS = system: SF-295 CNS
SF-539 CNS = system: SF-539 CNS
SK-MEL-2 melanoma = system: SK-MEL-2 melanoma
SK-MEL-28 melanoma = system: SK-MEL-28 melanoma
SK-MEL-5 melanoma = system: SK-MEL-5 melanoma
SN12C renal = system: SN12C renal
SNB-19 CNS = system: SNB-19 CNS
SNB-75 CNS = system: SNB-75 CNS
SNB-78 CNS = system: SNB-78 CNS
SR leukemia = system: SR leukemia
SW-620 colon = system: SW-620 colon
TK-10 renal = system: TK-10 renal
U251 CNS = system: U251 CNS
UACC-257 melanoma = system: UACC-257 melanoma
UO-31 renal = system: UO-31 renal
XF 498 CNS = system: XF 498 CNS
786-0 renal = system: 786-0 renal
HOP-62 NSCLC = system: HOP-62 NSCLC
NCI-H226 lung = system: NCI-H226 lung
NCI-H522 lung = system: NCI-H522 lung
OVCAR-3 ovarian = system: OVCAR-3 ovarian
SK-OV-3 ovarian = system: SK-OV-3 ovarian
M19-MEL melanoma = system: M19-MEL melanoma
UACC-62 melanoma = system: UACC-62 melanoma

Measured: TGI

COc1ccc(-c2cc3[nH]nc(N)c3c(=O)o2)cc1
not listed: 786-0 renal | HOP-62 NSCLC | NCI-H226 lung | NCI-H522 lung | OVCAR-3 ovarian | SK-OV-3 ovarian | M19-MEL melanoma | UACC-62 melanoma
> 100 µM: all other assays above

CC(=O)C1=C(O)CC2CC3c4[nH]c5ccccc5c4CCN3CC2C1 (configuration not stated)
87.7 µM: CCRF-CEM leukemia
70.6 µM: MOLT-4 leukemia
82.3 µM: RXF 393 renal
58.5 µM: SR leukemia
not listed: CAKI-1 renal | HOP-92 NSCLC | RPMI-8226 leukemia | M19-MEL melanoma | UACC-62 melanoma
> 100 µM: all other assays above

COc1cccc(NC(=O)/C(Cc2nc3ccccc3nc2C)=N/NC(=O)C[n+]2ccccc2)c1
39.8 µM: U251 CNS
25.6 µM: SW-620 colon
44.6 µM: COLO 205 colon
68.1 µM: RPMI-8226 leukemia
not listed: HOP-92 NSCLC | RXF 393 renal | NCI-H522 lung
> 100 µM: all other assays above

CCN(CC)C(=O)C(C)n1cc(C)c(=O)[nH]c1=O (configuration not stated)
98.6 µM: SNB-75 CNS
not listed: A498 renal | CAKI-1 renal | DLD-1 colon | HOP-18 NSCLC | HOP-92 NSCLC | SR leukemia | UACC-257 melanoma | NCI-H226 lung | SK-OV-3 ovarian
> 100 µM: all other assays above
